Data: patent US4012345A, “Des-(Ala^1, Gly^2), Met^11 -SRIF and intermediates” (American Home Products Corporation, priority 1976, dated 1977)
Positions of bridges follow the written chain, without caps; N, C: chain ends. Residues, ends and D or L forms follow the SMILES beside them.

Tests used:
somatotropin = settings: Brazeau et al., Science, 179 pp 77-79 (1973); cited from earlier work
insulin = assay: Arginine-stimulated plasma insulin in Nembutal-anesthetized rats (radioimmunoassay); assay type: in vivo, albino male rats
Experimental: (§1) The in vivo activity of the compounds of this invention was established by subjecting des-(Ala^1, Gly2), Met^11 -Somatostatin, as a representative compound of the invention, to the following standard test procedure: Three groups of ten albino male rats were arranged to provide a control group, a group for observation of Somatostatin activity as the standard and a group for the study of the test compound des-(Ala^1, Gly^2), Met^11 -Somatostatin. Nembutal (50 mg/kg) was injected intraperitoneally into each rat. Fifteen minutes later a subcutaneous injection of the test compound, somatostatin and physiological saline (control) was administered separately to each of the three groups of rats. Ten minutes later 0.5 milliliters of arginine (300 mg/ml, pH 7.2) was injected into the rats heart. The rats were decapitated five minutes later and their blood was collected in Trasylol -EDTA. Aliquot samples were radioimmunoassayed for growth hormone and insulin.

growth hormone = assay: Arginine-stimulated plasma growth hormone in Nembutal-anesthetized rats (radioimmunoassay); assay type: in vivo, albino male rats; settings: *p < 0.01
Experimental: as §1

Molecule | inhibition of secretion of somatotropin (growth hormone) (somatotropin) | Insulin (insulin; Experiment 1, dose 400 μg/kg subcutaneous, control 172 ± 11, *p < 0.01) [μU/ml] | Insulin (insulin; Experiment 3, dose 1500 μg/kg subcutaneous, control 206 ± 19) [μU/ml] | GH (growth hormone; Experiment 2, dose 100 μg/kg subcutaneous, control 176 ± 29) [ng/mL] | GH (growth hormone; Experiment 3, dose 1500 μg/kg subcutaneous, control 123 ± 16) [ng/mL]
H-Ala-Gly-Cys-Lys-Asn-Phe-Phe-Trp-Lys-Thr-Phe-Thr-Ser-Cys-OH (H-AGCKNFFWKTFTSC-OH; ends and bridges not checked) [linear form of somatostatin] | same biological activity as somatostatin obtained from a natural source | – | – | – | –
CSCC[C@@H]1NC(=O)[C@H]([C@@H](C)O)NC(=O)[C@H](CCCCN)NC(=O)[C@H](Cc2c[nH]c3ccccc23)NC(=O)[C@H](Cc2ccccc2)NC(=O)[C@H](Cc2ccccc2)NC(=O)[C@H](CC(N)=O)NC(=O)[C@H](CCCCN)NC(=O)[C@@H](N)CSSC[C@@H](C(=O)O)NC(=O)[C@H](CO)NC(=O)[C@H]([C@@H](C)O)NC1=O [Example 3, L-Cysteinyl-L-lysyl-L-asparaginyl-L-phenylalanyl-L-phenylalanyl-L-tryptophyl-L-lysyl-L-threonyl-L-methionyl-L-threonyl-L-seryl-L-cysteine (1-12) disulfide] (H-CKNFFWKTMTSC-OH; disulfide 1-12) | – | 143 ± 13 | 128 ± 13 | 72 ± 12 | 42 ± 10
